Data published in PubChem BioAssay (NCI).
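Step 1: Grow cells in 96-well plates. Step 2: Expose to compound for 48 hours at 5 concentrations. Step 3: Interpolate endpoints linearly; if unreached, use highest concentration. At the TGI there is no net growth.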

Tests used:
Assay in all cases: NCI-60 cell line screen, 48 h
DMS 114 small cell lung = tested on: DMS 114 small cell lung
LXFL 529 NSCLC = tested on: LXFL 529 NSCLC
HL-60(TB) leukemia = tested on: HL-60(TB) leukemia
NCI-H23 lung = tested on: NCI-H23 lung
SNB-75 CNS = tested on: SNB-75 CNS
HT29 colon = tested on: HT29 colon
OVCAR-4 ovarian = tested on: OVCAR-4 ovarian
UACC-62 melanoma = tested on: UACC-62 melanoma
A498 renal = tested on: A498 renal
NCI-H226 lung = tested on: NCI-H226 lung
SN12C renal = tested on: SN12C renal
EKVX NSCLC = tested on: EKVX NSCLC
RXF 393 renal = tested on: RXF 393 renal
MALME-3M melanoma = tested on: MALME-3M melanoma
M19-MEL melanoma = tested on: M19-MEL melanoma
MOLT-4 leukemia = tested on: MOLT-4 leukemia
786-0 renal = tested on: 786-0 renal
HCT-15 colon = tested on: HCT-15 colon
ACHN renal = tested on: ACHN renal
K-562 leukemia = tested on: K-562 leukemia
U251 CNS = tested on: U251 CNS
HOP-18 NSCLC = tested on: HOP-18 NSCLC
OVCAR-5 ovarian = tested on: OVCAR-5 ovarian
LOX IMVI melanoma = tested on: LOX IMVI melanoma
HCC-2998 colon = tested on: HCC-2998 colon
SW-620 colon = tested on: SW-620 colon
OVCAR-3 ovarian = tested on: OVCAR-3 ovarian
NCI-H460 lung = tested on: NCI-H460 lung
HOP-92 NSCLC = tested on: HOP-92 NSCLC
M14 melanoma = tested on: M14 melanoma
HOP-62 NSCLC = tested on: HOP-62 NSCLC
KM20L2 colon = tested on: KM20L2 colon
RXF-631 renal = tested on: RXF-631 renal
A549 NSCLC = tested on: A549 NSCLC
SK-OV-3 ovarian = tested on: SK-OV-3 ovarian
SNB-19 CNS = tested on: SNB-19 CNS
IGROV1 ovarian = tested on: IGROV1 ovarian
CCRF-CEM leukemia = tested on: CCRF-CEM leukemia
SK-MEL-2 melanoma = tested on: SK-MEL-2 melanoma
DLD-1 colon = tested on: DLD-1 colon
DMS 273 small cell lung = tested on: DMS 273 small cell lung
COLO 205 colon = tested on: COLO 205 colon
OVCAR-8 ovarian = tested on: OVCAR-8 ovarian
SK-MEL-5 melanoma = tested on: SK-MEL-5 melanoma
SF-539 CNS = tested on: SF-539 CNS
CAKI-1 renal = tested on: CAKI-1 renal
SK-MEL-28 melanoma = tested on: SK-MEL-28 melanoma
NCI-H522 lung = tested on: NCI-H522 lung
TK-10 renal = tested on: TK-10 renal
SF-295 CNS = tested on: SF-295 CNS
SF-268 CNS = tested on: SF-268 CNS
RPMI-8226 leukemia = tested on: RPMI-8226 leukemia
KM12 colon = tested on: KM12 colon
HCT-116 colon = tested on: HCT-116 colon
SNB-78 CNS = tested on: SNB-78 CNS
UO-31 renal = tested on: UO-31 renal
UACC-257 melanoma = tested on: UACC-257 melanoma
SR leukemia = tested on: SR leukemia

Cc1cc(=O)oc2cc(OCc3nc4ccccc4c(=O)n3-c3ccccc3)ccc12
TGI (DMS 114 small cell lung): > 100 µM
TGI (LXFL 529 NSCLC): > 100 µM
TGI (HL-60(TB) leukemia): > 100 µM
TGI (NCI-H23 lung): > 100 µM
TGI (SNB-75 CNS): 46.7 µM
TGI (HT29 colon): > 100 µM
TGI (OVCAR-4 ovarian): > 100 µM
TGI (UACC-62 melanoma): > 100 µM
TGI (A498 renal): > 100 µM
TGI (NCI-H226 lung): > 100 µM
TGI (SN12C renal): > 100 µM
TGI (EKVX NSCLC): > 100 µM
TGI (RXF 393 renal): > 100 µM
TGI (MALME-3M melanoma): > 100 µM
TGI (M19-MEL melanoma): > 100 µM
TGI (MOLT-4 leukemia): > 100 µM
TGI (786-0 renal): > 100 µM
TGI (HCT-15 colon): > 100 µM
TGI (ACHN renal): > 100 µM
TGI (K-562 leukemia): > 100 µM
TGI (U251 CNS): > 100 µM
TGI (HOP-18 NSCLC): > 100 µM
TGI (OVCAR-5 ovarian): > 100 µM
TGI (LOX IMVI melanoma): > 100 µM
TGI (HCC-2998 colon): > 100 µM
TGI (SW-620 colon): > 100 µM
TGI (OVCAR-3 ovarian): > 100 µM
TGI (NCI-H460 lung): > 100 µM
TGI (HOP-92 NSCLC): 96.4 µM
TGI (M14 melanoma): > 100 µM
TGI (HOP-62 NSCLC): > 100 µM
TGI (KM20L2 colon): > 100 µM
TGI (RXF-631 renal): > 100 µM
TGI (A549 NSCLC): > 100 µM
TGI (SK-OV-3 ovarian): > 100 µM
TGI (SNB-19 CNS): 97.7 µM
TGI (IGROV1 ovarian): > 100 µM
TGI (CCRF-CEM leukemia): > 100 µM
TGI (SK-MEL-2 melanoma): > 100 µM
TGI (DLD-1 colon): > 100 µM
TGI (DMS 273 small cell lung): > 100 µM
TGI (COLO 205 colon): > 100 µM
TGI (OVCAR-8 ovarian): > 100 µM
TGI (SK-MEL-5 melanoma): > 100 µM
TGI (SF-539 CNS): > 100 µM
TGI (CAKI-1 renal): > 100 µM
TGI (SK-MEL-28 melanoma): > 100 µM
TGI (NCI-H522 lung): > 100 µM
TGI (TK-10 renal): > 100 µM
TGI (SF-295 CNS): > 100 µM
TGI (SF-268 CNS): > 100 µM
TGI (RPMI-8226 leukemia): > 100 µM
TGI (KM12 colon): > 100 µM
TGI (HCT-116 colon): > 100 µM

COc1c(C)c(O)c2c(=O)cc(-c3ccccc3)oc2c1C
TGI (DMS 114 small cell lung): > 100 µM
TGI (LXFL 529 NSCLC): > 100 µM
TGI (NCI-H23 lung): > 100 µM
TGI (SNB-75 CNS): > 100 µM
TGI (HT29 colon): > 100 µM
TGI (OVCAR-4 ovarian): > 100 µM
TGI (UACC-62 melanoma): > 100 µM
TGI (A498 renal): > 100 µM
TGI (SNB-78 CNS): > 100 µM
TGI (NCI-H226 lung): > 100 µM
TGI (SN12C renal): > 100 µM
TGI (EKVX NSCLC): > 100 µM
TGI (MALME-3M melanoma): > 100 µM
TGI (M19-MEL melanoma): > 100 µM
TGI (MOLT-4 leukemia): > 100 µM
TGI (786-0 renal): > 100 µM
TGI (HCT-15 colon): > 100 µM
TGI (ACHN renal): > 100 µM
TGI (UO-31 renal): > 100 µM
TGI (K-562 leukemia): > 100 µM
TGI (U251 CNS): > 100 µM
TGI (HOP-18 NSCLC): > 100 µM
TGI (OVCAR-5 ovarian): > 100 µM
TGI (LOX IMVI melanoma): > 100 µM
TGI (HCC-2998 colon): > 100 µM
TGI (SW-620 colon): > 100 µM
TGI (UACC-257 melanoma): > 100 µM
TGI (OVCAR-3 ovarian): > 100 µM
TGI (NCI-H460 lung): > 100 µM
TGI (HOP-92 NSCLC): > 100 µM
TGI (M14 melanoma): > 100 µM
TGI (HOP-62 NSCLC): > 100 µM
TGI (KM20L2 colon): > 100 µM
TGI (RXF-631 renal): > 100 µM
TGI (A549 NSCLC): > 100 µM
TGI (SK-OV-3 ovarian): > 100 µM
TGI (IGROV1 ovarian): > 100 µM
TGI (CCRF-CEM leukemia): > 100 µM
TGI (SK-MEL-2 melanoma): > 100 µM
TGI (DLD-1 colon): > 100 µM
TGI (OVCAR-8 ovarian): > 100 µM
TGI (SK-MEL-5 melanoma): > 100 µM
TGI (SF-539 CNS): > 100 µM
TGI (CAKI-1 renal): > 100 µM
TGI (SK-MEL-28 melanoma): > 100 µM
TGI (NCI-H522 lung): > 100 µM
TGI (TK-10 renal): > 100 µM
TGI (SF-295 CNS): > 100 µM
TGI (SF-268 CNS): > 100 µM
TGI (KM12 colon): > 100 µM
TGI (HCT-116 colon): > 100 µM

CC(N)Cc1ccc(F)cc1 (configuration not stated)
TGI (DMS 114 small cell lung): > 100 µM
TGI (LXFL 529 NSCLC): > 100 µM
TGI (HL-60(TB) leukemia): > 100 µM
TGI (NCI-H23 lung): > 100 µM
TGI (SNB-75 CNS): > 100 µM
TGI (HT29 colon): > 100 µM
TGI (OVCAR-4 ovarian): > 100 µM
TGI (UACC-62 melanoma): > 100 µM
TGI (A498 renal): > 100 µM
TGI (SNB-78 CNS): > 100 µM
TGI (NCI-H226 lung): > 100 µM
TGI (SN12C renal): > 100 µM
TGI (EKVX NSCLC): > 100 µM
TGI (RXF 393 renal): > 100 µM
TGI (MALME-3M melanoma): > 100 µM
TGI (MOLT-4 leukemia): > 100 µM
TGI (786-0 renal): > 100 µM
TGI (HCT-15 colon): > 100 µM
TGI (ACHN renal): > 100 µM
TGI (UO-31 renal): > 100 µM
TGI (K-562 leukemia): > 100 µM
TGI (U251 CNS): > 100 µM
TGI (HOP-18 NSCLC): > 100 µM
TGI (OVCAR-5 ovarian): > 100 µM
TGI (LOX IMVI melanoma): > 100 µM
TGI (HCC-2998 colon): > 100 µM
TGI (SW-620 colon): > 100 µM
TGI (UACC-257 melanoma): > 100 µM
TGI (OVCAR-3 ovarian): > 100 µM
TGI (NCI-H460 lung): > 100 µM
TGI (HOP-92 NSCLC): > 100 µM
TGI (M14 melanoma): > 100 µM
TGI (HOP-62 NSCLC): > 100 µM
TGI (KM20L2 colon): > 100 µM
TGI (RXF-631 renal): > 100 µM
TGI (A549 NSCLC): > 100 µM
TGI (SK-OV-3 ovarian): > 100 µM
TGI (SNB-19 CNS): > 100 µM
TGI (IGROV1 ovarian): > 100 µM
TGI (CCRF-CEM leukemia): > 100 µM
TGI (SK-MEL-2 melanoma): > 100 µM
TGI (DLD-1 colon): > 100 µM
TGI (DMS 273 small cell lung): > 100 µM
TGI (COLO 205 colon): > 100 µM
TGI (OVCAR-8 ovarian): > 100 µM
TGI (SK-MEL-5 melanoma): > 100 µM
TGI (SF-539 CNS): > 100 µM
TGI (CAKI-1 renal): > 100 µM
TGI (SK-MEL-28 melanoma): > 100 µM
TGI (NCI-H522 lung): > 100 µM
TGI (TK-10 renal): > 100 µM
TGI (SR leukemia): > 100 µM
TGI (SF-295 CNS): > 100 µM
TGI (SF-268 CNS): > 100 µM
TGI (RPMI-8226 leukemia): > 100 µM
TGI (KM12 colon): > 100 µM
TGI (HCT-116 colon): > 100 µM
